Like-named read-outs stand apart in the source and are kept apart here.
Experiments:
[1] = target: T1, wild-type RT (Human immunodeficiency virus type 1 group M subtype B, UniProt P03366); details: cited from earlier work
T1 construct: RT is a heterodimer consisting of a p66 and p51 subunit

[2] = target: T2, K103N RT mutant (Human immunodeficiency virus type 1 group M subtype B, UniProt P03366, K702N); assay: EC50 of TMC278 against K103N mutant; type: cell-based, HIV-1; details: Example 4
T2 construct: RT is a heterodimer consisting of a p66 and p51 subunit

[3] = tested on: HIV-1; details: antiretroviral naïve patients; once daily 25, 50, 100, or 150 mg for seven days; day 8 versus before initial dosage; Goebel et al., 2006; cited from earlier work
[4] = Goebel et al., 2006, cited from earlier work
[5] = target: T3, Lys103Asn/Tyr181Cys double mutant RT (Human immunodeficiency virus type 1 group M subtype B, UniProt P03366, K702N/Y780C); details: cited from earlier work
T3 construct: RT is a heterodimer consisting of a p66 and p51 subunit

[6] = target: T4, Leu100Ile/Lys103Asn double mutant RT (Human immunodeficiency virus type 1 group M subtype B, UniProt P03366, K702N/L699I); details: cited from earlier work
T4 construct: RT is a heterodimer consisting of a p66 and p51 subunit

[7] = target: T4, Leu100Ile/Lys103Asn double mutant RT; assay: EC50 of TMC278 against L100I/K103N double mutant; type: cell-based, HIV-1; details: Example 4 (Table 1, not given)
[8] = target: T5, Y181C RT mutant (Human immunodeficiency virus type 1 group M subtype B, UniProt P03366, Y780C); assay: EC50 of TMC278 against Y181C mutant; type: cell-based, HIV-1; details: Example 4
T5 construct: RT is a heterodimer consisting of a p66 and p51 subunit

[9] = target: T3, Lys103Asn/Tyr181Cys double mutant RT; assay: EC50 of TMC278 against K103N/Y181C double mutant; type: cell-based, HIV-1; details: Example 4
[10] = patients given TMC278 once daily for seven days; Goebel et al., 2006; cited from earlier work

rilpivirine [TMC278]
EC50 ([1]; Example 2, read-out: EC50 (the 50% effective concentration)): 0.4 nM | EC50 ([1]; de Bethune et al. online poster 2005, read-out: EC50): 0.51 nM | EC50 [2]: < 1 nM | average decrease of HIV-1 RNA viral load [3]: 1.199 log10 copies/ml | plasma concentrations of TMC278 ([4]; at any of the time points tested, target concentration 13.5 ng/ml): ≥ 13.5 ng/mL | Bioavailability ([4]; patients, once daily dosage): excellent | EC50 ([5]; K103N and Y181C (RT55A mutations), de Bethune et al. online poster 2005): 1.7 nM | EC50 ([5]; Lys103Asn/Tyr181Cys double mutant, Guillemont et al., 2005, Janssen et al): 1 nM | EC50 ([6]; L100I and K103N (RT51A mutations), de Bethune et al. online poster 2005, read-out: EC50): 2.7 nM | EC50 ([6]; double mutant Leu100Ile/Lys103Asn, Example 2, read-out: EC50 (the 50% effective concentration)): 7 nM | EC50 [7]: ~8 nM | EC50 [8]: < 1 nM | EC50 [9]: < 1 nM | headaches reported, patients [10]: 14%

Source: patent US20110244496A1, “HIV REVERSE TRANSCRIPTASE COMPOSITIONS AND METHODS” (priority 2007, published 2011)
